Key:
Progesterone receptor = biological target: T1, Progesterone receptor (Homo sapiens, UniProt P06401)
T1 sequence (P06401 whole entry): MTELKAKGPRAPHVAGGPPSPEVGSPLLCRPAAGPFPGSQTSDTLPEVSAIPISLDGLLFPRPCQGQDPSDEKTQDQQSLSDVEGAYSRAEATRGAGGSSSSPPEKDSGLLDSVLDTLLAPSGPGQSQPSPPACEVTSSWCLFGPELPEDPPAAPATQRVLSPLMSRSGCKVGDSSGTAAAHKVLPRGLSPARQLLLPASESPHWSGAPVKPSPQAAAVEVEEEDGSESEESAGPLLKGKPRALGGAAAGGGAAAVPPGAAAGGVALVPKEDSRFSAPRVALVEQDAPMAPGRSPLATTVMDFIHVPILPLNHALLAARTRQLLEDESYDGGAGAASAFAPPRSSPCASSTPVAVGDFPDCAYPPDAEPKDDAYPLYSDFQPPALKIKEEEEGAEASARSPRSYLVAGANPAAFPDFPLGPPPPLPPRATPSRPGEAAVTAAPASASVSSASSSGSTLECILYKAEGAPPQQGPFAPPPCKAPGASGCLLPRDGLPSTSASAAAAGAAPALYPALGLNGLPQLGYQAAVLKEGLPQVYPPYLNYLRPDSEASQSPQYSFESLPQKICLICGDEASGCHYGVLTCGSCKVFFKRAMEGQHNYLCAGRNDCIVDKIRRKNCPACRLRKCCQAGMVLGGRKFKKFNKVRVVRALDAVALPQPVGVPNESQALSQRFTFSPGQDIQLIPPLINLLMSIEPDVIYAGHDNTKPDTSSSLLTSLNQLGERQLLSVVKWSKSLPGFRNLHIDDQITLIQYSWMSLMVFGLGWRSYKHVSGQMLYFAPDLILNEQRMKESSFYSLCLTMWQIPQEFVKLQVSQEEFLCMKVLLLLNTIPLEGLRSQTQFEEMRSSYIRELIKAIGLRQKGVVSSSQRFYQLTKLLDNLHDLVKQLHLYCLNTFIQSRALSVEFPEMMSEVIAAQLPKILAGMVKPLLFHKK

Acetylcholinesterase = Acetylcholinesterase (Homo sapiens, UniProt P22303); assay type: functional
Sequence of Acetylcholinesterase (P22303 whole entry): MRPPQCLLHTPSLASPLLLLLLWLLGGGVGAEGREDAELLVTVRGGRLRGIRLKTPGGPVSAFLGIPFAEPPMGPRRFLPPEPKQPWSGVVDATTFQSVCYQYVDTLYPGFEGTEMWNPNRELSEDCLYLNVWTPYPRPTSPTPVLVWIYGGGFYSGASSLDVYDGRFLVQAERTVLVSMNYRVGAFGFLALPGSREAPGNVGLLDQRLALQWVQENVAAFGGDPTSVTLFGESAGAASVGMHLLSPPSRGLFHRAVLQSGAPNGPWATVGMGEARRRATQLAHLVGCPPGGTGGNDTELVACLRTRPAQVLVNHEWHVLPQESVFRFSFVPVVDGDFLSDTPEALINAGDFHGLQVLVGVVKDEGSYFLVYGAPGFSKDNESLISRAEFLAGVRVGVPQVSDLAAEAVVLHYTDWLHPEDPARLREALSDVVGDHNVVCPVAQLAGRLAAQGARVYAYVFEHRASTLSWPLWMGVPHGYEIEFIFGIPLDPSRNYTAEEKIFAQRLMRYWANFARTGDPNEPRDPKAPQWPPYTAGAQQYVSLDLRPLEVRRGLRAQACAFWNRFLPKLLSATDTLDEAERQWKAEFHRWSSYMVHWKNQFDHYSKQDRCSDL

[1] = biological target: T2, Prostaglandin G/H synthase 1 (Homo sapiens, UniProt P23219); assay type: functional
T2 sequence (P23219 whole entry): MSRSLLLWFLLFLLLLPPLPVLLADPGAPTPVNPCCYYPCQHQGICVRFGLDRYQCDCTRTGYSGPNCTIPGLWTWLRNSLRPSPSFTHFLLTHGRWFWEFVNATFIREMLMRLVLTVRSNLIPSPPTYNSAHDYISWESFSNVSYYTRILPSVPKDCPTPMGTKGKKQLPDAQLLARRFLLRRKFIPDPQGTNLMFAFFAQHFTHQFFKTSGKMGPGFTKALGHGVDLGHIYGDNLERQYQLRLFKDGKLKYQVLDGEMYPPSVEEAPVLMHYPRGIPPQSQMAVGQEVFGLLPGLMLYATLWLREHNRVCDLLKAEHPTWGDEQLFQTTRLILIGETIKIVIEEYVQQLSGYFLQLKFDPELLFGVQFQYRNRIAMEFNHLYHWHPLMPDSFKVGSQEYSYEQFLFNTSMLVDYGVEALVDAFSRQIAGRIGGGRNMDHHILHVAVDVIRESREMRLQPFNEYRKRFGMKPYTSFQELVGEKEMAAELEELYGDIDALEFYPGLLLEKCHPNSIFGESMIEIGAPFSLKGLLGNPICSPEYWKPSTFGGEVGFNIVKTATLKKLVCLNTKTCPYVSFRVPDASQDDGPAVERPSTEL

Estrogen receptor = biological target: T3, Estrogen receptor (Homo sapiens, UniProt P03372)
T3 sequence (P03372 whole entry): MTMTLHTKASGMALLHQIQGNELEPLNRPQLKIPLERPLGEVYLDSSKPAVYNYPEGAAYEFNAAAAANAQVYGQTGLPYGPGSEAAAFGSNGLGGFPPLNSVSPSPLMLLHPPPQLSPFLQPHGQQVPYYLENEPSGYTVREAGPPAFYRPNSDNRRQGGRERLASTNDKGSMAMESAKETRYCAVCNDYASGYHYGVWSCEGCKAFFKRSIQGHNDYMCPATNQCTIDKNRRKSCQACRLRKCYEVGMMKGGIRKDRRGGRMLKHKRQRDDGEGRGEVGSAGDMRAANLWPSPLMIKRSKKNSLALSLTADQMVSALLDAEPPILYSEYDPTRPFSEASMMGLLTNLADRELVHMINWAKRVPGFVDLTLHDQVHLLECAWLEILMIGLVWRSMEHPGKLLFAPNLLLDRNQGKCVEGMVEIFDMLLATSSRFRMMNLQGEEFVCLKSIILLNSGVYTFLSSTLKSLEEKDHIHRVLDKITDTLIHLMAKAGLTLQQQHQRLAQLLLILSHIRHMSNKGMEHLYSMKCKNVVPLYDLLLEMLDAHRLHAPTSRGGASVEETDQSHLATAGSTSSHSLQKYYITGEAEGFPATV

[2] = biological target: Sodium-dependent serotonin transporter (Homo sapiens, UniProt P31645)
Sequence of Sodium-dependent serotonin transporter (P31645 whole entry): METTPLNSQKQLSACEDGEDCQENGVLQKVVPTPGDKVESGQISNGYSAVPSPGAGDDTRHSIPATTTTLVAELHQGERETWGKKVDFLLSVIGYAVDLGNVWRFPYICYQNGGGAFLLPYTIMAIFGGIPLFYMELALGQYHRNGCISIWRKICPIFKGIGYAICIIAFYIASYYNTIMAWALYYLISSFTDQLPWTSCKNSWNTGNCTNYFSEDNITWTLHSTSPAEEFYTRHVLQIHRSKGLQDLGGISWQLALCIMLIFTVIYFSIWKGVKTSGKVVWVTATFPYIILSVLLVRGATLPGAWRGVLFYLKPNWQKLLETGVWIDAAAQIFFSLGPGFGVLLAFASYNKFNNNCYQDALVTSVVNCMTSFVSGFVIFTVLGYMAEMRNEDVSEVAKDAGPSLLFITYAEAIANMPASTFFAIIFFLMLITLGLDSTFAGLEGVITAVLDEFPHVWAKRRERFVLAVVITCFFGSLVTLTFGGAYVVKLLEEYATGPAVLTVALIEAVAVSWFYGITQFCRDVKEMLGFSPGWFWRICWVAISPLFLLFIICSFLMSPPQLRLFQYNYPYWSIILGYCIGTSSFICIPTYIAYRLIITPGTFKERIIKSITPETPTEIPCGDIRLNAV

[3] = biological target: T2, Prostaglandin G/H synthase 1; assay type: functional; remark: listed apart in the source
[4] = biological target: cGMP-inhibited 3',5'-cyclic phosphodiesterase 3A (Homo sapiens, UniProt Q14432); assay type: functional
Sequence of cGMP-inhibited 3',5'-cyclic phosphodiesterase 3A (Q14432 whole entry): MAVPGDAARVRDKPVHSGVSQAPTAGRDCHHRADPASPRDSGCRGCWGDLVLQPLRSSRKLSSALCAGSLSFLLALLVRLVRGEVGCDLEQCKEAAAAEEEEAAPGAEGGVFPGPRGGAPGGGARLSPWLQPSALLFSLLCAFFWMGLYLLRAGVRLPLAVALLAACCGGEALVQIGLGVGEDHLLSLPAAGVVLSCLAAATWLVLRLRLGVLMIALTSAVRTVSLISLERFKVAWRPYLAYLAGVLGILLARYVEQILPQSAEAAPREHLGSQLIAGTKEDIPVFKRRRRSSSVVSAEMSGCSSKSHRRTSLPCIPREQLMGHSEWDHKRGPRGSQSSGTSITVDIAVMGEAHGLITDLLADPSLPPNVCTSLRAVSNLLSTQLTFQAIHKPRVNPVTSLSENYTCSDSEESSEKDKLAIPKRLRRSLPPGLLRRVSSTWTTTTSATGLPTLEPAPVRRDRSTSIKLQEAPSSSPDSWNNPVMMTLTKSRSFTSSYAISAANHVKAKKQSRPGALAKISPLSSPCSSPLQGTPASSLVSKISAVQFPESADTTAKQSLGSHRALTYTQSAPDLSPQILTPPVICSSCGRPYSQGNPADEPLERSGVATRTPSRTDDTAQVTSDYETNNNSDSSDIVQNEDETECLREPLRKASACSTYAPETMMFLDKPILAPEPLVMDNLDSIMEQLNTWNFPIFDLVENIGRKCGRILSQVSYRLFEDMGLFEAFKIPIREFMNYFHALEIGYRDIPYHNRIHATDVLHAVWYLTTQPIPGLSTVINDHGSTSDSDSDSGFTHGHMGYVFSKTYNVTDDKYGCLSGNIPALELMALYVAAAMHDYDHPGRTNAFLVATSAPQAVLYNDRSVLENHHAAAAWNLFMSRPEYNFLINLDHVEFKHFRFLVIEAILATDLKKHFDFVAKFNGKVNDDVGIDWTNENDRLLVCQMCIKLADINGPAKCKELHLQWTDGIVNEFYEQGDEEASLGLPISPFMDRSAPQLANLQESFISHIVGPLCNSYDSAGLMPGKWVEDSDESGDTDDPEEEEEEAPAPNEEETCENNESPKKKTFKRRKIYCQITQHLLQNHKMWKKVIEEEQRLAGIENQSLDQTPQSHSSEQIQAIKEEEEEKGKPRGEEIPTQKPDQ

Thromboxane A2 receptor [5] = biological target: T4, Thromboxane A2 receptor (Homo sapiens, UniProt P21731); assay type: functional, cell-based
T4 sequence (P21731 whole entry): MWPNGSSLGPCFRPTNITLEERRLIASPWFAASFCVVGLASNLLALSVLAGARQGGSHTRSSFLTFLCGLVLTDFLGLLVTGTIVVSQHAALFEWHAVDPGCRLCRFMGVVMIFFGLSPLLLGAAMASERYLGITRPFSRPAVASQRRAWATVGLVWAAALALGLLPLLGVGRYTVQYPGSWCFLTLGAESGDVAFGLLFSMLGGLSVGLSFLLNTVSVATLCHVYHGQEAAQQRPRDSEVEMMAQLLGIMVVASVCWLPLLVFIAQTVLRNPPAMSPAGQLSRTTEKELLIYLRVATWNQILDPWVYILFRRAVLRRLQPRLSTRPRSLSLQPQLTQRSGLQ

[6] = biological target: 5-hydroxytryptamine receptor 2B (Homo sapiens, UniProt P41595); assay type: functional, cell-based
Sequence of 5-hydroxytryptamine receptor 2B (P41595 whole entry): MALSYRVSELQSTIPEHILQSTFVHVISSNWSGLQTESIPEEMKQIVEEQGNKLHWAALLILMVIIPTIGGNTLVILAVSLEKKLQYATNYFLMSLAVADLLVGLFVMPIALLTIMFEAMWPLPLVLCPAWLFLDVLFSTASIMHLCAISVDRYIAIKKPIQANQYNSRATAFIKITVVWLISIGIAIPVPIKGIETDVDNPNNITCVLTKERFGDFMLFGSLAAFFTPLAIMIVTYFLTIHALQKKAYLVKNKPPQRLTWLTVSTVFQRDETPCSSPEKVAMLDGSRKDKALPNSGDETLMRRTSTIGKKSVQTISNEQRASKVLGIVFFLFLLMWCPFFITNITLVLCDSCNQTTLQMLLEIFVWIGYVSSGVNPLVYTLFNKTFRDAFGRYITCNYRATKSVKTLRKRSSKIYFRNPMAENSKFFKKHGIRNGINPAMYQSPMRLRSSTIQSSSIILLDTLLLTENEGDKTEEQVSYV

Thromboxane A2 receptor [7] = biological target: T4, Thromboxane A2 receptor; assay type: functional, cell-based; remark: listed apart in the source
[8] = biological target: T5, Alpha-1A adrenergic receptor (Homo sapiens, UniProt P35348); assay type: functional, cell-based
T5 sequence (P35348 whole entry): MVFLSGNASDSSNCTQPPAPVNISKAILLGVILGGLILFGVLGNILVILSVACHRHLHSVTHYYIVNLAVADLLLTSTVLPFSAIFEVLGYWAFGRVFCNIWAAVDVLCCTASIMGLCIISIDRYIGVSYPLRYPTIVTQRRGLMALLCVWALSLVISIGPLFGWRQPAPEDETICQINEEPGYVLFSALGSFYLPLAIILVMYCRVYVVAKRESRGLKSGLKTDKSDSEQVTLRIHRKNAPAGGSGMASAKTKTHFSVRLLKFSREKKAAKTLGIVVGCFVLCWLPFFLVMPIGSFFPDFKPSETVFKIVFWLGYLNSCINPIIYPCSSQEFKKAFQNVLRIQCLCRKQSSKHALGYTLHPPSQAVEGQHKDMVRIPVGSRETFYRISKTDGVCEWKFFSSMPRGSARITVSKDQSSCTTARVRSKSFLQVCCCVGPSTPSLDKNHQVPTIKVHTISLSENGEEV
Also: assay procedure not described here.

Row | SMILES | AC50 (Progesterone receptor) [µM] | AC50 (Acetylcholinesterase) [µM] | AC50 [1] [µM] | AC50 (Estrogen receptor) [µM] | AC50 [2] [µM] | AC50 [3] [µM] | AC50 [4] [µM] | AC50 (Thromboxane A2 receptor [5]) [µM] | AC50 [6] [µM] | AC50 (Thromboxane A2 receptor [7]) [µM] | AC50 [8] [µM]
1 | CCCCCCCC(=O)N[C@H](CN1CCCC1)[C@H](O)c1ccc2c(c1)OCCO2 | > 30 | > 30 | 10.1 | > 30 | > 30 | 26.5 | > 30 | > 30 | > 30 | > 30 | 
2 | C[C@]1(COc2ccc(N3CCC(Oc4ccc(OC(F)(F)F)cc4)CC3)cc2)Cn2cc([N+](=O)[O-])nc2O1 | > 30 | > 30 | 27.9 | > 30 | 2.02 | > 30 | > 30 | > 30 | > 30 | > 30 | > 30
3 | O=C(Nc1nc(-c2cc(Cl)cs2)c(N2CCN(C3CCCCC3)CC2)s1)c1cnc(N2CCC(C(=O)O)CC2)c(Cl)c1 [AVATROMBOPAG] | > 30 | > 30 | > 30 | > 30 | > 30 | 19.8 | > 30 | > 30 | > 30 | > 10 | 
4 | C[C@@H](O)[C@H]1C(=O)N2C(C(=O)[O-])=C(SC3Cn4cnc[n+]4C3)[C@H](C)[C@H]12 (stereo not given in full) [BIAPENEM] | > 30 | > 30 | > 30 |  | > 30 | > 30 | > 30 | > 30 | > 30 | > 30 | > 30
5 | CCCCOc1ccc(CC(=O)NO)cc1 [BUFEXAMAC] | > 30 | > 30 | > 30 |  | > 30 | > 30 | > 30 | > 30 | > 30 | > 30 | > 30
6 | Cc1onc(-c2c(Cl)cccc2Cl)c1C(=O)N[C@@H]1C(=O)N2[C@@H]1SC(C)(C)[C@@H]2C(=O)O [DICLOXACILLIN] | > 30 | > 30 | > 30 |  | > 30 | > 30 | > 30 | > 30 | > 30 | > 30 | > 30
7 | CCCCC/C=C\C/C=C\C/C=C\CCCCC(=O)O [GAMOLENIC ACID] | > 30 | > 30 | 4.91 |  | > 30 | 11.6 | > 30 | > 30 | > 30 | > 30 | > 30
8 | CC(N)CCCC(C)(C)O (stereo not given) [HEPTAMINOL] | > 30 | > 30 | > 30 |  | > 30 | > 30 | > 30 | > 30 | > 30 | > 30 | > 30
9 | Cc1cc(CCN2CCN(c3cccc(Cl)c3)CC2)n[nH]1 [MEPIPRAZOLE] | > 30 | > 30 | > 30 | > 30 | 3.8 | > 30 | > 30 | > 30 | > 30 | > 30 | 
10 | CC[N+](C)(CC)CCOC(=O)C1c2ccccc2Oc2ccccc21 [METHANTHELINE] | > 30 | > 30 | > 30 |  | > 30 | > 30 | > 30 | > 30 | > 30 | > 30 | > 30
11 | CCC(=O)O[C@@H]1CC(=O)O[C@H](C)C/C=C/C=C/[C@H](OC(C)=O)[C@H](C)C[C@H](CC=O)[C@H](O[C@@H]2O[C@H](C)[C@@H](O[C@H]3C[C@@](C)(OC(C)=O)[C@@H](OC(=O)CC)[C@H](C)O3)[C@H](N(C)C)[C@H]2O)[C@H]1OC [MIOCAMYCIN] | > 30 | > 30 | > 30 | > 30 | > 30 | > 30 | > 30 | > 30 | > 30 | > 30 | 
12 | CCN(CC)CCOC(=O)C(Cc1cccc2ccccc12)CC1CCCO1 (stereo not given) [NAFRONYL] | > 30 | > 30 | > 30 |  | 28.4 | > 30 | > 30 | > 30 | > 30 | > 30 | > 30
13 | c1ccc2c(CC3=NCCN3)cccc2c1 [NAPHAZOLINE] | > 30 | > 30 | > 30 | > 30 | > 30 | > 30 | > 30 | > 30 | > 30 | > 30 | 
14 | CO[C@H]1/C=C/O[C@@]2(C)Oc3c(C)c(O)c4c(O)c(cc(O)c4c3C2=O)NC(=O)/C(C)=C\C=C\[C@H](C)[C@H](O)[C@@H](C)[C@@H](O)[C@@H](C)[C@H](OC(C)=O)[C@@H]1C [RIFAMYCIN] | > 30 | > 30 | > 30 | > 30 | > 30 | 28.7 | > 30 | 8.77 | > 30 |  | 
15 | CCOC(=O)[C@H](CCc1ccccc1)N[C@H]1CS[C@H](c2cccs2)CN(CC(=O)O)C1=O [TEMOCAPRIL] |  | > 30 | > 30 | > 30 | > 30 | > 30 | > 30 | > 30 | > 30 | > 30 | > 30
16 | CCSc1ccc2c(c1)N(CCCN1CCN(C)CC1)c1ccccc1S2 [THIETHYLPERAZINE] | 24.4 | > 30 | > 0.3 | > 30 | 4.88 | 26.5 | > 30 | > 30 | > 30 | 3.98 | 

Source: ChEMBL document CHEMBL5291721, “A preclinical secondary pharmacology resource illuminates target-adverse drug reaction associations of marketed drugs” (Nat Commun, 2023)
